target: T1, recombinant His-tag Y220C p53 DBD protein (Homo sapiens, UniProt P04637, Y220C); test: In vitro DNA binding activity assay (TR-FRET): binding of His-tag Y220C p53 DBD to biotin-labeled consensus DNA; format: biochemical; details: SC150 = concentration to increase DNA binding by […], His-tag Y220C p53 DBD, biotin-labeled consensus DNA
T1 construct: recombinant His-tag Y220C p53 DBD protein (amino acids #˜94-312)

| SMILES | Y220C SC150 (μM) |
| --- | --- |
| COCC(C)(C)n1cc(C(=O)NCc2nc(-c3cc4c(N[C@H]5CCN(C(C)(C)C)C[C@@H]5F)cccc4n3CC(F)(F)F)no2)cn1 (racemic) [Compound 411B, N-{[3-(4-{[(3R,4R)-1-tert-butyl-3-fluoropiperidin-4-yl]amino}-1-(2,2,2-trifluoroethyl)-1H-indol-2-yl)-1,2,4-oxadiazol-5-yl]methyl}-1-(1-methoxy-2-methylpropan-2-yl)-1H-pyrazole-4-carboxamide] | * (* = 0 μM ≤ SC150 < 0.1 μM) |
| CO[C@H]1CCC[C@@H]1n1ccc(C(=O)NCc2nc(-c3cc4c(N[C@@H]5CCN(C)C[C@@H]5F)cccc4n3CC(F)(F)F)no2)c1 (relative stereo) [Compound 355B] | * (* = 0 μM ≤ SC150 < 0.1 μM) |
| CO[C@H]1CCCC[C@@H]1n1ccc(C(=O)NCc2nc(-c3cc4c(N[C@@H]5CCN(C)C[C@@H]5F)cccc4n3CC(F)(F)F)no2)c1 (relative stereo) [Compound 384B] | * (* = 0 μM ≤ SC150 < 0.1 μM) |
| CO[C@H]1CCCC[C@@H]1n1cc(C(=O)NCc2nc(-c3cc4c(N[C@@H]5CCN(C)C[C@@H]5F)cccc4n3CC(F)(F)F)no2)cn1 (relative stereo) [Compound 385B] | * (* = 0 μM ≤ SC150 < 0.1 μM) |
| CN1CC[C@@H](Nc2cccc3c2cc(-c2noc(CNC(=O)c4cnn([C@H]5CCC[C@@H]5F)c4)n2)n3CC(F)(F)F)[C@@H](F)C1 (relative stereo) [Compound 395B] | * (* = 0 μM ≤ SC150 < 0.1 μM) |
| COC1CCCC1n1cc(C(=O)NCc2nc(-c3cc4c(N[C@@H]5CCN(C)C[C@@H]5F)cccc4n3CC(F)(F)F)no2)cn1 (stereo in doubt) [Compound 348B, N-{[3-(4-{[(3S,4R)-3-fluoro-1-methylpiperidin-4-yl]amino}-1-(2,2,2-trifluoroethyl)-1H-indol-2-yl)-1,2,4-oxadiazol-5-yl]methyl}-1-[(1R,2R)-2-methoxycyclopentyl]-1H-pyrazole-4-carboxamide] | * (* = 0 μM ≤ SC150 < 0.1 μM) |
| COC1CCC(n2ccc(C(=O)NCc3nc(-c4cc5c(N[C@@H]6CCN(C)C[C@@H]6F)cccc5n4CC(F)(F)F)no3)c2)C1 (stereo in doubt) [Compound 359B, N-{[3-(4-{[(3S,4R)-3-fluoro-1-methylpiperidin-4-yl]amino}-1-(2,2,2-trifluoroethyl)-1H-indol-2-yl)-1,2,4-oxadiazol-5-yl]methyl)-1-[(1R,3S)-3-methoxycyclopentyl]-1H-pyrrole-3-carboxamide] | * (* = 0 μM ≤ SC150 < 0.1 μM) |
| COC1CCC(n2ccc(C(=O)NCc3nc(-c4cc5c(N[C@@H]6CCN(C)C[C@@H]6F)cccc5n4CC(F)(F)F)no3)c2)C1 (stereo in doubt) [Compound 360B, N-{[3-(4-{[(3S,4R)-3-fluoro-1-methylpiperidin-4-yl]amino}-1-(2,2,2-trifluoroethyl)-1H-indol-2-yl)-1,2,4-oxadiazol-5-yl]methyl}-1-[(1R,3R)-3-methoxycyclopentyl]-1H-pyrrole-3-carboxamide] | * (* = 0 μM ≤ SC150 < 0.1 μM) |
| CN1CC[C@@H](Nc2cccc3c2cc(-c2noc(CNC(=O)c4ccn(C5CCC(N(C)C)C5)c4)n2)n3CC(F)(F)F)[C@@H](F)C1 (stereo in doubt) [Compound 361B, 1-[(1R,3R)-3-(dimethylamino)cyclopentyl]-N-{[3-(4-{[(3S,4R)-3-fluoro-1-methylpiperidin-4-yl]amino}-1-(2,2,2-trifluoroethyl)-1H-indol-2-yl)-1,2,4-oxadiazol-5-yl]methyl}-1H-pyrrole-3-carboxamide] | * (* = 0 μM ≤ SC150 < 0.1 μM) |
| CN1CC[C@@H](Nc2cccc3c2cc(-c2noc(CNC(=O)c4ccn([C@H]5CC[C@@H](N(C)C)C5)c4)n2)n3CC(F)(F)F)[C@@H](F)C1 (stereo in doubt) [Compound 362B, Cis-1-[(1R,3R)-3-(dimethylamino)cyclopentyl]-N-{[3-(4-{[(3S,4R)-3-fluoro-1-methylpiperidin-4-yl]amino}-1-(2,2,2-trifluoroethyl)-1H-indol-2-yl)-1,2,4-oxadiazol-5-yl]methyl}-1H-pyrrole-3-carboxamide] | * (* = 0 μM ≤ SC150 < 0.1 μM) |
| COC1CCCC1n1ccc(C(=O)NCc2nc(-c3cc4c(N[C@@H]5CCN(C)C[C@@H]5F)cccc4n3CC(F)(F)F)no2)c1 (stereo in doubt) [Compound 364B, N-{[3-(4-{[(3S,4R)-3-fluoro-1-methylpiperidin-4-yl]amino}-1-(2,2,2-trifluoroethyl)-1H-indol-2-yl)-1,2,4-oxadiazol-5-yl]methyl}-1-[(1R,2S)-2-methoxycyclopentyl]-1H-pyrrole-3-carboxamide] | * (* = 0 μM ≤ SC150 < 0.1 μM) |
| CN1CC[C@@H](Nc2cccc3c2cc(-c2noc(CNC(=O)c4ccn([C@H]5CC[C@](C)(O)C5)c4)n2)n3CC(F)(F)F)[C@@H](F)C1 (stereo in doubt) [Compound 373B, Trans-N-{[3-(4-{[(3S,4R)-3-fluoro-1-methylpiperidin-4-yl]amino}-1-(2,2,2-trifluoroethyl)-1H-indol-2-yl)-1,2,4-oxadiazol-5-yl]methyl}-1-[(1R,3R)-3-hydroxy-3-methylcyclopentyl]-1H-pyrrole-3-carboxamide] | * (* = 0 μM ≤ SC150 < 0.1 μM) |
| CN1CC[C@@H](Nc2cccc3c2cc(-c2noc(CNC(=O)c4ccn([C@H]5CC[C@@](C)(O)C5)c4)n2)n3CC(F)(F)F)[C@@H](F)C1 (stereo in doubt) [Compound 374B, Cis-N-{[3-(4-{[(3S,4R)-3-fluoro-1-methylpiperidin-4-yl]amino}-1-(2,2,2-trifluoroethyl)-1H-indol-2-yl)-1,2,4-oxadiazol-5-yl]methyl}-1-[(1R,3S)-3-hydroxy-3-methylcyclopentyl]-1H-pyrrole-3-carboxamide] | * (* = 0 μM ≤ SC150 < 0.1 μM) |
| CCOC1CCCC1n1cc(C(=O)NCc2nc(-c3cc4c(N[C@@H]5CCN(C)C[C@@H]5F)cccc4n3CC(F)(F)F)no2)cn1 (stereo in doubt) [Compound 375B, 1-[(1R,2R)-2-ethoxycyclopentyl]-N-{[3-(4-{[(3S,4R)-3-fluoro-1-methylpiperidin-4-yl]amino}-1-(2,2,2-trifluoroethyl)-1H-indol-2-yl)-1,2,4-oxadiazol-5-yl]methyl}-1H-pyrazole-4-carboxamide] | * (* = 0 μM ≤ SC150 < 0.1 μM) |
| CCOC1CCCC1n1ccc(C(=O)NCc2nc(-c3cc4c(N[C@@H]5CCN(C)C[C@@H]5F)cccc4n3CC(F)(F)F)no2)c1 (stereo in doubt) [Compound 376B, 1-[(1R,2R)-2-ethoxycyclopentyl]-N-{[3-(4-{[(3S,4R)-3-fluoro-1-methylpiperidin-4-yl]amino}-1-(2,2,2-trifluoroethyl)-1H-indol-2-yl)-1,2,4-oxadiazol-5-yl]methyl}-1H-pyrrole-3-carboxamide] | * (* = 0 μM ≤ SC150 < 0.1 μM) |
| CN1CC[C@@H](Nc2cccc3c2cc(-c2noc(CNC(=O)c4cnn(C5CCCC5OCCF)c4)n2)n3CC(F)(F)F)[C@@H](F)C1 (stereo in doubt) [Compound 377B, N-{[3-(4-{[(3S,4R)-3-fluoro-1-methylpiperidin-4-yl]amino}-1-(2,2,2-trifluoroethyl)-1H-indol-2-yl)-1,2,4-oxadiazol-5-yl]methyl}-1-[(1R,2R)-2-(2-fluoroethoxy)cyclopentyl]-1H-pyrazole-4-carboxamide] | * (* = 0 μM ≤ SC150 < 0.1 μM) |
| CN1CC[C@@H](Nc2cccc3c2cc(-c2noc(CNC(=O)c4ccn(C5CCCC5OCCF)c4)n2)n3CC(F)(F)F)[C@@H](F)C1 (stereo in doubt) [Compound 381B, N-{[3-(4-{[(3S,4R)-3-fluoro-1-methylpiperidin-4-yl]amino}-1-(2,2,2-trifluoroethyl)-1H-indol-2-yl)-1,2,4-oxadiazol-5-yl]methyl}-1-[(1R,2R)-2-(2-fluoroethoxy)cyclopentyl]-1H-pyrrole-3-carboxamide] | * (* = 0 μM ≤ SC150 < 0.1 μM) |
| CN1CC[C@@H](Nc2cccc3c2cc(-c2noc(CNC(=O)c4ccn(C5CCCC5F)c4)n2)n3CC(F)(F)F)[C@@H](F)C1 (stereo in doubt) [Compound 392B, N-{[3-(4-{[(3S,4R)-3-fluoro-1-methylpiperidin-4-yl]amino}-1-(2,2,2-trifluoroethyl)-1H-indol-2-yl)-1,2,4-oxadiazol-5-yl]methyl}-1-[(1R,2R)-2-fluorocyclopentyl]-1H-pyrrole-3-carboxamide] | * (* = 0 μM ≤ SC150 < 0.1 μM) |
| CC(C)(C)N1CCC(Nc2cccc3c2cc(-c2noc(CNC(=O)c4cnn(C(C)(C)C)c4)n2)n3CC(F)(F)F)[C@@H](F)C1 (stereo in doubt) [Compound 400B, 1-tert-butyl-N-{[3-(4-{[(3S,4R)-1-tert-butyl-3-fluoropiperidin-4-yl]amino}-1-(2,2,2-trifluoroethyl)-1H-indol-2-yl)-1,2,4-oxadiazol-5-yl]methyl}-1H-pyrazole-4-carboxamide] | * (* = 0 μM ≤ SC150 < 0.1 μM) |
| COC1CCCC1n1ccc(C(=O)NCc2nc(-c3cc4c(N[C@@H]5CN(C)CC[C@@H]5F)cccc4n3CC(F)(F)F)no2)c1 (stereo in doubt) [Compound 410B, N-{[3-(4-{[(3R,4S)-4-fluoro-1-methylpiperidin-3-yl]amino}-1-(2,2,2-trifluoroethyl)-1H-indol-2-yl)-1,2,4-oxadiazol-5-yl]methyl}-1-[(1R,2R)-2-methoxycyclopentyl]-1H-pyrrole-3-carboxamide] | * (* = 0 μM ≤ SC150 < 0.1 μM) |
| CC1(n2ccc(C(=O)NCc3nc(-c4cc5c(N[C@@H]6CCOC[C@@H]6F)cccc5n4CC(F)(F)F)no3)c2)CCOCC1 (stereo in doubt) [Compound 491B] | * (* = 0 μM ≤ SC150 < 0.1 μM) |
| CC1(n2ccc(C(=O)NCc3nc(-c4cc5c(N[C@@H]6CCOC[C@@H]6F)cccc5n4CC(F)(F)F)no3)c2)CCOCC1 (stereo in doubt) [Compound 494B, N-((3-(4-(((3R,4R)-3-fluorotetrahydro-2H-pyran-4-yl)amino)-1-(2,2,2-trifluoroethyl)-1H-indol-2-yl)-1,2,4-oxadiazol-5-yl)methyl)-1-(4-methyltetrahydro-2H-pyran-4-yl)-1H-pyrrole-3-carboxamide] | * (* = 0 μM ≤ SC150 < 0.1 μM) |
